Source: the Deep4Chem optical property database

Assay: solvent given as SMILES

CCCCOc1cc(C=C2c3ccccc3-c3ccccc32)c(OCCCC)cc1C=C1c2ccccc2C=Cc2ccccc21
emission maximum (in C1CCOC1): 472 nm

F[Si](c1ccccc1)(c1c2ccccc2cc2ccccc12)c1c2ccccc2cc2ccccc12
emission maximum (in C1CCOC1): 409 nm

CCCCCCCCCCCCCCCCCCN1C(=O)c2ccc3c4ccc5c6c(ccc(c7ccc(c2c37)C1=O)c64)C(=O)N(CCCCCCCCCCCCCCCCCC)C5=O
emission maximum (in CN(C)C=O): 535 nm

c1cc2c([nH]c3c4[nH]c5sccc5c4c4nsnc4c23)s1
emission maximum (in C1CCOC1): 511 nm | emission maximum (in CCOC(C)=O): 510 nm | emission maximum (in CN(C)C=O): 547 nm | emission maximum (in Cc1ccccc1): 496 nm | emission maximum (in ClCCl): 533 nm

COc1nc(Cl)nc(Nc2ccc3c4c(cccc24)C(=O)c2ccccc2-3)n1
emission maximum (in CC#N): 537.92 nm | emission maximum (in CC(C)=O): 526.87 nm | emission maximum (in CC(C)O): 570.13 nm | emission maximum (in CCCCOCCCC): 507.1 nm | emission maximum (in CCOC(C)=O): 520.02 nm | emission maximum (in CCOCC): 514.14 nm | emission maximum (in CO): 578.03 nm | emission maximum (in Cc1ccccc1): 518.13 nm | emission maximum (in Clc1ccccc1): 524.93 nm | emission maximum (in N#Cc1ccccc1): 526.04 nm | emission maximum (in O=C1CCCCC1): 524.11 nm

COc1ccc(C(=O)OCc2c(C)c(=O)n3c(=O)c(C)c(C)n23)cc1
emission maximum (in CCO): 461 nm

COC(=O)C1=C(C(=O)OC)C2(c3ccccc3-c3ccc([N+](=O)[O-])cc32)C2(/C=C/c3ccccc3)c3cc(OC)c(OC)cc3CCN12 (centres undefined)
emission maximum (in ClCCl): 510 nm

N#C/C(=C\c1ccc(C(F)(F)F)cc1)c1nc(-c2ccc(Cl)cc2)cs1
emission maximum (in CC#N): 490 nm

c1ccc(C2=C(c3ccccn3)[Si](c3ccccc3)(c3ccccc3)c3ccccc32)cc1
emission maximum (in ClCCl): 406 nm

CCCN1c2ccccc2Sc2cc(/C=C\c3cc(=O)oc4cc(O)ccc34)ccc21
emission maximum (in ClC(Cl)Cl): 631 nm

O=S1c2ccccc2-c2cc(-c3c4ccccc4cc4ccccc34)ccc21 (centres undefined)
emission maximum (in C1CCCCC1): 401.88 nm | emission maximum (in CC#N): 504.43 nm | emission maximum (in ClCCl): 444.61 nm

COc1ccc(C2=C3C=c4c(oc5cc6c(cc45)[C@H]4CC[C@]5(C)C(=O)CC[C@H]5[C@@H]4CC6)=[N+]3[B-](F)(F)n3c2cc2c4cc5c(cc4oc23)CC[C@@H]2[C@@H]5CC[C@]3(C)C(=O)CC[C@@H]23)cc1
emission maximum (in CCOC(C)=O): 615 nm | emission maximum (in CCOCC): 611.5 nm | emission maximum (in CO): 613.5 nm

Cc1ccc(CN(Cc2ccc(C)cc2)c2nc(C#N)c(N(Cc3ccc(C)cc3)Cc3ccc(C)cc3)nc2C#N)cc1
emission maximum (in ClC(Cl)Cl): 592 nm

CN(C)c1ccc(C#Cc2cc(C#Cc3ccc(C(F)(F)F)cc3)c3ccc4c(C#Cc5ccc(C(F)(F)F)cc5)cc(C#Cc5ccc(N(C)C)cc5)c5ccc2c3c54)cc1
emission maximum (in ClCCl): 608 nm

F[B-]1(F)Oc2c(ccc3c4c(ccc23)C=[N+](c2ccccc2)[B-](F)(F)O4)C=[N+]1c1ccccc1
emission maximum (in Cc1ccccc1): 538 nm | emission maximum (in ClCCl): 533 nm

CC(C)c1ccc2ccc3c(C(C)C)ccc4ccc1c2c43
emission maximum (in CCCCCC): 380 nm | emission maximum (in CO): 380 nm | emission maximum (in ClCCl): 381 nm

CC[B-]1(CC)c2cccc3c4c5c(cccc5c(c23)-c2cccc(C)[n+]21)[B-](CC)(CC)[n+]1c(C)cccc1-4
emission maximum (in ClCCl): 620 nm

CCOc1ccc2c(-c3nc(-c4ccccc4)no3)cc(=O)oc2c1
emission maximum (in CCO): 468 nm | emission maximum (in ClC(Cl)Cl): 454 nm

CNCCCN1c2ccccc2CCc2ccccc21
emission maximum (in CC#N): 348 nm | emission maximum (in CO): 356 nm | emission maximum (in O): 400 nm

CCCCN1c2ccccc2Sc2cc(/C=C\c3cc(=O)oc4ccc(C)cc34)ccc21
emission maximum (in ClC(Cl)Cl): 635 nm

CC(C)(C)c1ccc(-c2c3ccccc3c3n2[B-](F)(F)[N+]2=Cc4c5ccccc5c(-c5ccc(C(C)(C)C)cc5)n4[B-](F)(F)[N+]2=C3)cc1
emission maximum (in CC#N): 601 nm | emission maximum (in CCCCCC): 603 nm | emission maximum (in CN(C)C=O): 607 nm | emission maximum (in Cc1ccccc1): 611 nm | emission maximum (in ClCCl): 608 nm

Cc1c(C(=O)c2ccc(C(F)(F)F)cc2)c2ccc3cccc4c5cccc6ccc1c(c65)c2c34
emission maximum (in ClCCl): 545 nm

c1ccc2c(c1)-c1ccccc1C21c2ccccc2-c2oc3c(c21)C1(c2ccccc2-c2ccccc21)c1ccccc1-3
emission maximum (in C1CCOC1): 393 nm

CN(C)c1ccc(C2=Cc3c4ccccc4c4ccccc4[n+]3[B-](F)(F)O2)cc1
emission maximum (in C1CCOC1): 539 nm | emission maximum (in C1COCCO1): 518 nm | emission maximum (in CC1CCCCC1): 485 nm | emission maximum (in CC#N): 569 nm | emission maximum (in CCOC(C)=O): 536 nm | emission maximum (in CCOCC): 513 nm | emission maximum (in CN(C)C=O): 571 nm | emission maximum (in CO): 559 nm | emission maximum (in COC(C)=O): 559 nm | emission maximum (in ClC(Cl)Cl): 521 nm

COc1ccc(-c2nc3ccccc3nc2/C=C/N2CCCC2)s1
emission maximum (in CC#N): 583.94 nm

CN(C)CCNCc1c2ccccc2cc2ccccc12
emission maximum (in C1CCCCC1): 388 nm | emission maximum (in C1CCOC1): 413 nm | emission maximum (in CC#N): 389 nm | emission maximum (in CC(C)=O): 387 nm | emission maximum (in CCO): 410 nm | emission maximum (in CN(C)C=O): 414 nm | emission maximum (in CO): 388 nm | emission maximum (in ClC(Cl)Cl): 417 nm

COc1ccc(C2=N/C(=C\c3ccc(C#N)cc3)C(=O)N2)cc1OC
emission maximum (in C1COCCO1): 482 nm

CCCCCCCCC1(CCCCCCCC)c2cc(-c3ccc(C=C4C(=O)c5ccccc5C4=O)cc3)ccc2-c2ccc(-c3ccc(C=C4C(=O)c5ccccc5C4=O)cc3)cc21
emission maximum (in C1CCOC1): 531 nm | emission maximum (in CC(C)=O): 568 nm | emission maximum (in CCCCCC): 462 nm | emission maximum (in CS(C)=O): 596 nm | emission maximum (in Cc1ccccc1): 486 nm | emission maximum (in ClC(Cl)Cl): 530 nm

N#Cc1c(N2CCCCC2)cc(-c2ccc3ccc4cccc5ccc2c3c45)c2c1C(=O)c1ccccc1-2
emission maximum (in C1CCOC1): 473 nm

CCN(CC)c1ccc2cc(-c3nc4cc(C(=O)Nc5cccc(OC)c5)ccc4o3)c(=O)oc2c1
emission maximum (in ClCCl): 494 nm

c1cc2ccc3cccc4c(-c5cc(-c6nccs6)nc(-c6nccs6)c5)cc(c1)c2c34
emission maximum (in CC#N): 458 nm | emission maximum (in CCCCCC): 392 nm | emission maximum (in CO): 483 nm | emission maximum (in ClC(Cl)Cl): 439 nm

CCCCCCCCCCCCOc1cc(/C=C/c2ccc3c(c2)C(CC)(CC)c2cc(N4c5ccccc5Sc5ccccc54)ccc2-3)c(OCCCCCCCCCCCC)cc1/C=C/c1ccc2c(c1)C(CC)(CC)c1cc(N3c4ccccc4Sc4ccccc43)ccc1-2
emission maximum (in C1CCOC1): 474 nm | emission maximum (in CC#N): 473 nm | emission maximum (in CCCCCC): 477 nm | emission maximum (in Cc1ccccc1): 468 nm | emission maximum (in ClCCl): 477 nm

COc1ccc(-c2ccc(OC)cc2)cc1
emission maximum (in C1CCCCC1): 363.77 nm

Cc1ccc(-c2cc(/C=C/c3ccc(N(c4ccccc4)c4ccccc4)cc3)c(-c3ccc(C)cc3)cc2/C=C/c2ccc(N(c3ccccc3)c3ccccc3)cc2)cc1
emission maximum (in ClCCl): 492 nm

CC1=N/C(=C\c2ccc(N(C)C)cc2)C(=O)N1C
emission maximum (in C1CCCCC1): 437 nm | emission maximum (in C1CCOC1): 452 nm | emission maximum (in CC#N): 483 nm | emission maximum (in CO): 492 nm | emission maximum (in CS(C)=O): 490 nm | emission maximum (in ClCCl): 482 nm | emission maximum (in O): 520 nm

CN(C)c1ccc(/C=C/c2cc[n+](CCC[n+]3ccc(/C=C/c4ccc(N(C)C)cc4)cc3)cc2)cc1
emission maximum (in CC1COC(=O)O1): 604 nm | emission maximum (in CC#N): 609 nm | emission maximum (in CC(C)=O): 608 nm | emission maximum (in CC(C)O): 594 nm | emission maximum (in CCO): 601 nm | emission maximum (in CN(C)C=O): 607 nm | emission maximum (in CO): 604 nm | emission maximum (in CS(C)=O): 610 nm | emission maximum (in ClC(Cl)Cl): 566 nm | emission maximum (in O): 597 nm | emission maximum (in c1ccncc1): 598 nm

CC(C)(C(=O)c1ccc(N2c3ccccc3C(C)(C)c3ccccc32)cc1)C(=O)c1ccc(N2c3ccccc3C(C)(C)c3ccccc32)cc1
emission maximum (in Cc1ccccc1): 506 nm | emission maximum (in c1ccc2c(c1)c1ccccc1n2-c1ccc(-c2ccc(-n3c4ccccc4c4ccccc43)cc2)cc1): 495.97 nm

FC(F)(F)C(F)(F)C(F)(F)C1=NC2=C(Sc3ccccc3)C=C3c4cc(Sc5ccccc5)c5nc(C(F)(F)C(F)(F)C(F)(F)F)nc6c(Sc7ccccc7)cc(c4c56)=C4C=C(Sc5ccccc5)C(=N1)C2C34 (centres undefined)
emission maximum (in C1CCOC1): 606 nm

Clc1ccc(-c2nc3sc4ccccc4c3s2)cc1
emission maximum (in CS(C)=O): 418 nm

c1ccc(-n2nc(-c3ccc(-c4ccc5c(c4)C(c4ccccc4)(c4ccccc4)c4ccccc4-5)cc3)nc2-c2ccccn2)cc1
emission maximum (in ClCCl): 358 nm

S=P1(c2ccccc2)c2cccc3ccc4ccc1n4c23 (centres undefined)
emission maximum (in ClCCl): 490 nm

c1ccc2c(c1)c1ccccc1n2-c1ccc(-c2ccn3nc(-c4ccc(-n5c6ccccc6c6ccccc65)cc4)nc3c2)cc1
emission maximum (in C1CCOC1): 413 nm

Cc1nc2c(ccc3c2sc(/C=C/c2cc4c5c(c2)CCCN5CCC4)[n+]3C)s1
emission maximum (in CO): 622 nm | emission maximum (in ClC(Cl)Cl): 623 nm

CSc1ccc(/C=C/c2cnc3ccccc3n2)cc1
emission maximum (in C1CCOC1): 467 nm | emission maximum (in CC#N): 499 nm | emission maximum (in CCCCCCC): 426 nm | emission maximum (in CS(C)=O): 513 nm | emission maximum (in ClCCl): 475 nm

O=P1(c2ccccc2)C(c2ccccc2)=Cc2ccccc21 (centres undefined)
emission maximum (in C1CCOC1): 417 nm | emission maximum (in ClCCl): 423 nm

N#Cc1cc(-c2ccccc2)c(N2c3ccccc3Oc3ccccc32)c(-c2ccccc2)c1
emission maximum (in C1CCCCC1): 455 nm

O=[N+]([O-])c1ccc(C#Cc2ccc3ccc(C#Cc4ccc([N+](=O)[O-])cc4)cc3c2)cc1
emission maximum (in ClCCl): 527 nm

CCOC(=O)c1c2c3c(ccc(Cl)c3c3cc4ccccc4cc13)N(C)C2=O
emission maximum (in CC#N): 414 nm

CCCCOc1ccc(-c2oc3cc4n(c3c2-c2ccc(OCCCC)cc2)[B-](F)(F)[N+]2=Cc3cc5oc(-c6ccc(OCCCC)cc6)c(-c6ccc(OCCCC)cc6)c5n3[B-](F)(F)[N+]2=C4)cc1
emission maximum (in C1CCOC1): 638 nm | emission maximum (in CN(C)C=O): 644 nm | emission maximum (in CS(C)=O): 647 nm | emission maximum (in Cc1ccccc1): 641 nm | emission maximum (in ClC(Cl)Cl): 646 nm | emission maximum (in ClCCl): 646 nm

c1ccc2c3c(ccc2c1)C1(c2cc(-c4ccc5ccc6cccc7ccc4c5c67)ccc2-c2ccc(-c4ccc5ccc6cccc7ccc4c5c67)cc21)c1ccc2ccccc2c1O3
emission maximum (in ClC(Cl)Cl): 422 nm
